Measurements as given in patent US12441743B2, “Spiro aromatic ring compound and use thereof” (Etern Biopharma (Shanghai) Co., Ltd., priority 2018, dated 2025).

Columns and labels:
SHP2 E76A protein = biological target: T1, SHP2 E76A protein (Homo sapiens, UniProt Q06124, E76A); assay: SHP2 enzyme activity inhibition test (DiFMUP substrate, fluorescence); format: biochemical; details: 50 ng SHP2 E76A, 20 min with compound, then 10 uM DiFMUP 20 min at room temperature
T1 sequence (Q06124 1-593 E76A): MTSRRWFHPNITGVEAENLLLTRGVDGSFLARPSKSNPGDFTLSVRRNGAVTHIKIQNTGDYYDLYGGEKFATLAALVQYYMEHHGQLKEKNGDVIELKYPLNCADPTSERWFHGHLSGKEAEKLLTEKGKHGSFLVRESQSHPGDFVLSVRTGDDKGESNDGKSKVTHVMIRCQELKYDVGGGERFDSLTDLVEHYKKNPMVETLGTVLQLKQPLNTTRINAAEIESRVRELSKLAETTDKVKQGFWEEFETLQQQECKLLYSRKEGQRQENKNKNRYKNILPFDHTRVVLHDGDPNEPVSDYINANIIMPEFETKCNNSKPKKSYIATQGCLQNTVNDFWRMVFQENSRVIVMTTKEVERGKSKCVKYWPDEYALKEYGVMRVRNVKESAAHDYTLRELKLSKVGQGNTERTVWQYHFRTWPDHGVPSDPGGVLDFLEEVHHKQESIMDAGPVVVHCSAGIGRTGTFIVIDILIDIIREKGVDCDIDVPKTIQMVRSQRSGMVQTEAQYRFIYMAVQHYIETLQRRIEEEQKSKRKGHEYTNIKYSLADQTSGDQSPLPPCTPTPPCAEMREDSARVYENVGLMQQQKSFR

MV4-11 cells = assay: MV4-11 cell proliferation inhibition experiment (CellTiter-Glo); format: cell-based; details: Homo sapiens; MV4-11 cells, 72 h, CellTiter-Glo; read-out: Cell proliferation inhibition activity
Protocol: The number of living cells in the culture was determined by quantitative determination of intracellular ATP using CellTiter-Glo® Luminescent Cell Viability Assay kit.
In the first step, MV4-11 cells were inoculated into 96-well plates with a density of 2500 cells per well and a volume of 100 μL per well. The plates were placed in 37° C., 5% carbon dioxide incubator overnight.
In the second step, cells were treated with compounds. The compounds to be tested were diluted 3 times, and 8 concentration gradients were set up. Each well was added with a certain volume of DMSO or the compound to be tested, and each concentration was tested in 2 replicates, and the final concentration of DMSO was 0.5%. The plates were placed in 37° C., 5% carbon dioxide incubator for 72 h.
In the third step, cell viability of the control groups and the treatment groups was determined using CellTiter-Glo® Luminescent Cell Viability Assay kit (Promega, G7570). Each well was added with 50 uL CellTiter-Glo. The culture was mixed well, and incubated at room temperature for 10 min. Signals were read using EnSpire (Perkin Elmer). Inhibition percentages (%) were calculated by the following formula:
Inhibition percentage (%)=(1−signal value of compound treatment group/signal value of DMSO treatment group)*100.

[1] = Pharmacokinetics experiment, intragastric single dose; format: in vivo; details: mouse, plasma, male mice, oral administration dosage 5 mg/Kg; for half-life: read-out: Half-life T1/2 (converted); for Cmax: read-out: Maximum plasma concentration Cmax; for AUC: read-out: Plasma exposure AUC
Protocol: Pharmacokinetics of the compound of the disclosure was determined. The following method was used to determine the pharmacokinetic parameters of the compound of the disclosure. Healthy male adult mice were used in the study. Each group was intragastrically administered with a single dose of 5-100 mg/kg. Fasting lasted from 10 hours before administration to 4 hours after administration. Blood samples were collected at different time points after administration and the compound content in plasma was determined by LC-MS/MS. The relationship between plasma concentration and time was analyzed by professional software (winnonlin), and the pharmacokinetic parameters of the compounds were calculated. According to Table 3, the compounds of the disclosure have excellent pharmacokinetic properties.

SMILES	IC50 (SHP2 E76A protein)	IC50 (MV4-11 cells)	bioavailability [1]	half-life [1]	Cmax [1]	AUC [1]
Nc1nccc(Sc2cnc(N3CCC4(CC3)Cc3cccnc3[C@H]4N)n3ccnc23)c1Cl [Compound 10, (S)-1′-(8-((2-amino-3-chloropyridin-4-yl)thio)imidazo[1,2-c]pyrimidin-5-yl)-5,7-dihydrospiro[cyclopenta[b]pyridine-6,4′-piperidine]-7-amine]	3 nM	7 nM	51%	3.8 h	5 µM	48 µM·h
Nc1nccc(Sc2cnc(N3CCC4(CC3)Cc3nccnc3[C@H]4N)n3ccnc23)c1Cl [Compound 18, (S)-1′-(8-((2-amino-3-chloropyridin-4-yl)thio)imidazo[1,2-c]pyrimidin-5-yl)-5,7-dihydrospiro[cyclopenta[b]pyrazine-6,4′-piperidine]-5-amine]	7 nM	42 nM	72%	3.5 h	6.5 µM	40 µM·h
